Test results published in patent publication US11634443B2, “Treprostinil prodrugs” (United Therapeutics Corporation, priority 2019, dated 2023).
Read-outs that look alike come from different tables or passages of the source.

What was measured:
[1] = Measured solubility at pH 6.5; type: physicochemical
[2] = Plasma stability and formation of treprostinil, human plasma; type: in vitro ADME; conditions: for Formation of Treprostinil, Concentration: prodrug dosed at 1 μM
Protocol: (§1) Studies were carried out in mixed-gender human plasma male Sprague-Dawley rat plasma, and male Beagle dog plasma. All plasma was obtained from Bioreclamation and collected on K2EDTA. Plasma was adjusted to pH 7.4 prior to initiating the experiments. DMSO stocks were first prepared for the test articles. […] The vials were kept in a benchtop Thermomixer® for the duration of the experiment. […] Samples were stored at 4° C. until the end of the experiment. After the final time point was sampled, the plate was mixed and then centrifuged at 3000 rpm for 10 minutes.

[3] = Plasma stability and formation of treprostinil, rat plasma; type: in vitro ADME; conditions: for Formation of Treprostinil, Concentration: prodrug dosed at 1 μM
Protocol: as §1

[4] = Plasma stability and formation of treprostinil, dog plasma; type: in vitro ADME; conditions: for Formation of Treprostinil, Concentration: prodrug dosed at 1 μM
Protocol: as §1

[5] = Stability and formation of treprostinil in human cryopreserved hepatocytes
Protocol: (§2) Mixed-gender human cryopreserved hepatocytes, male Sprague-Dawley rat cryopreserved hepatocytes, and male Beagle dog cryopreserved hepatocytes were purchased from XenoTech. The hepatocytes were thawed and prepared according to the vendor's instructions, pooled into Krebs Henseleit buffer (KHB, pH 7.4), and kept on ice prior to the experiments. […] The final DMSO content in the incubation mixture was ≤0.1%. […] Aliquots of the test article were withdrawn (n=1) at 0, 15, 30, 60, and 120 minutes. […] Aliquots of 7-HC were withdrawn (n=1) at 0 and 15 minutes. The reaction was immediately terminated by adding two volumes of ice-cold acetonitrile (ACN) to the test article samples and three volumes of ACN containing internal standard to the positive control samples.

[6] = Stability and formation of treprostinil in rat cryopreserved hepatocytes
Protocol: as §2

[7] = Stability and formation of treprostinil in dog cryopreserved hepatocytes
Protocol: as §2

[8] = target: T1, prostaglandin I2 (PGI2) receptor (IP) (Homo sapiens, UniProt P43119); assay: IP receptor cAMP assay (agonist mode); type: cell-based; conditions: for Activity, IP Relative to Tre: relative to treprostinil EC50 values, image character = too high to realistically calculate
T1 construct: expressed in transfected cells; host or cells: CHO-K1

[9] = target: T2, prostaglandin E2 (PGE2) receptor 2 (EP2) (Homo sapiens, UniProt P43116); assay: EP2 receptor cAMP assay (agonist mode); type: cell-based; conditions: cAMP, cells overexpressing human EP2
T2 construct: expressed in transfected cells; host or cells: HEK293T
Protocol: (§3) Assay Buffer: • EP1 Calcium and DP1 cAMP Assays: HBSS plus 20 mM HEPES • EP2 and IP1 cAMP Assays: 1 mM IBMX in HBSS plus 20 mM HEPES
(§4) Cells were thawed from frozen cells and resuspended in assay buffer at desired concentrations. cAMP or Calcium assays were performed according to the manufacturer's protocol using Multiscreen™ TR-FRET cAMP 1.0 No Wash Assay Kit or Multiscreen™ Calcium 1.0 No Wash Kit.
(§5) Gas Cyclic AMP (cAMP) Assay: In agonist mode testing, cells were seeded in a 384-well plate at an appropriate density and then were treated with compounds and incubated at 37° C. for 20 minutes. The reaction was terminated by sequentially adding sequentially adding trFluor™ Eu-labeled cAMP and trFluor™ 650-labeled anti-cAMP antibody in lysis buffer. […] All testing wells contained 0.1% DMSO in the final concentrations.
(§6) Data in graphs are represented in Mean±SD. Dose-dependent responses were fitted with sigmoidal dose-response curves allowing variable slopes using GraphPad Prism version 6 (Graphpad Prism).
(§7) These studies used cell lines overexpressing either human IP, EP2 or DP1, or EP1 receptors, and following incubation with varying concentrations of compounds, cAMP levels were measured using Fluorescence Resonance Energy Transfer (FRET).

[10] = target: T3, prostaglandin D2 (PGD2) receptor 1 (DP1) (Homo sapiens, UniProt Q13258); assay: DP1 receptor cAMP assay (agonist mode); type: cell-based; conditions: for Activity, DP1 Relative to Tre: relative to treprostinil EC50 values, * partial agonists or ambiguous dose-response curves; for Activity at the DP1 receptor compared to treprostinil: cAMP, cells overexpressing human DP1
T3 construct: expressed in transfected cells; host or cells: HEK293T
T3 sequence (Q13258 1-359): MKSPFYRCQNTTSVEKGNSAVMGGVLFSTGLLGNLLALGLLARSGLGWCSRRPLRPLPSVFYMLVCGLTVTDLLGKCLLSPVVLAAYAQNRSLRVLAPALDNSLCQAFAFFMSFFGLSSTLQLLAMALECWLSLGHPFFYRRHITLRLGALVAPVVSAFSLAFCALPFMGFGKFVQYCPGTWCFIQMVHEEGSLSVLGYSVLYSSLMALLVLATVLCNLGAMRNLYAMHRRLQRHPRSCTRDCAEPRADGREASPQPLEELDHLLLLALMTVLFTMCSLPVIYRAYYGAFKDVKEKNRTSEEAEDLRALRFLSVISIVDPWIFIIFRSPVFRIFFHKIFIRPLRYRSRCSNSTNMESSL
Protocol: as §3, §4, §5, §6, §7

[11] = Hydrolysis of treprostinil prodrugs to treprostinil at pH 6, 7 and 8 and 40 C; type: physicochemical
Description: Tables 26, 27 and 28 present data for hydrolysis of selected treprostinil prodrugs at pH 6, 7 and 8, respectively, and 40 C.

[12] = Stability and formation of treprostinil in human subcutaneous skin homogenate; conditions: pooled human skin homogenate, 1 μM
Protocol: For each of the test articles, 495 μL of skin homogenate was added to triplicate centrifuge tubes. To each tube, 5 μL of a 100 μM solution of test article was added, for a final test article dosing concentration of 1 μM. The tubes were placed onto a Thermomixer and maintained at 37° C. with gentle shaking for the duration of the experiment. At each time point (0, 30, 60, and 120 minutes), a 100 μL aliquot was removed from each tube and combined with 200 μL of acetonitrile to stop the stability reaction. The tubes were mixed and centrifuged at 3000 rpm for 10 minutes. Aliquots of supernatant were removed and diluted 1:1 with distilled water containing internal standard (2 μM treprostinil-d4). Calibration standards for the treprostinil analysis were prepared for each test article in a surrogate matrix (supernatant from a mixture of 1:2 human plasma:acetonitrile), at concentrations ranging from 1 μM to 1 nM. Calibration standards were also diluted 1:1 with distilled water containing internal standard.

[13] = Stability and formation of treprostinil in simulated intestinal fluid; type: in vitro ADME; conditions: for Formation of Treprostinil, Concentration: SIF, prodrug dosed at 1 μM
Protocol: Studies were carried out in simulated intestinal fluid (SIF). SIF was prepared by dissolving 6.8 g of KH2PO4 in 250 mL of water, mixing, and then adding 77 mL of 0.2 N NaOH and 750 mL of water. Pancreatin (10 g) was added, mixed, and the pH was adjusted to pH 6.8 with 10 N NaOH. DMSO stocks were first prepared for the test articles. Aliquots of the DMSO solutions were dosed into 0.4 mL of matrix, which had been pre-warmed to 37° C., at a final test article concentration of 1 μM. The vials were kept in a benchtop Thermomixer® for the duration of the experiment. A separate tube was dosed for each time point in each matrix. At the appropriate times (0, 15, 30, 60, and 120 minutes), 0.8 mL of acetonitrile (ACN) containing 1% formic acid and internal standard was added directly to a single tube. Samples were mixed and then immediately stored at 4° C. until the end of the experiment. After the final time point was sampled, the plate was mixed and then centrifuged at 3000 rpm for 10 minutes. Aliquots of the supernatant were removed, diluted 1:1 into distilled water containing internal standard, and analyzed by LC-MS/MS against calibration standards prepared in a matched matrix. All samples were analyzed for the dosed prodrugs as well as the drug, treprostinil. The test article concentration was compared to the concentration at time 0 to determine the percent of test article remaining at each time point. Half-lives were calculated using GraphPad software, fitting to a single-phase exponential decay equation.

[14] = microsomes
Protocol: (§8) Mixed-gender human liver microsomes, male Sprague-Dawley rat liver microsomes, and male Beagle dog liver microsomes were purchased from XenoTech. The reaction mixture, minus NADPH, was prepared as described below. […] An aliquot of the reaction mixture (without cofactor) was equilibrated in a shaking water bath at 37° C. for 5 minutes. The reaction was initiated by the addition of cofactor, and the mixture was incubated in a shaking water bath at 37° C. Aliquots (200 μL) were withdrawn at 0, 10, 20, 30, and 60 minutes. Test article samples were immediately combined with 400 μL of ice-cold acetonitrile (ACN) to terminate the reaction. […] The samples were then mixed and centrifuged to precipitate proteins. Aliquots of the supernatant were removed, diluted 1:1 into distilled water containing internal standard, and analyzed by LC-MS/MS against calibration standards prepared in a matched matrix. All samples were analyzed for the dosed prodrugs as well as the drug, treprostinil. The test article concentration was compared to the concentration at time 0 to determine the percent of test article remaining at each time point. Half-lives and clearance were calculated using GraphPad software, fitting to a single-phase exponential decay equation.
Liver Microsomes 0.5 mg/mL
Potassium Phosphate, pH 7.4 100 mM

[15] = microsomes; remark: listed apart in the source
Protocol: as §8
Liver Microsomes 0.5 mg/mL
Potassium Phosphate, pH 7.4 100 mM

[16] = cAMP, cells overexpressing human IP
[17] = Table 24, image character = too high to realistically calculate

T1 sequence (P43119 whole entry): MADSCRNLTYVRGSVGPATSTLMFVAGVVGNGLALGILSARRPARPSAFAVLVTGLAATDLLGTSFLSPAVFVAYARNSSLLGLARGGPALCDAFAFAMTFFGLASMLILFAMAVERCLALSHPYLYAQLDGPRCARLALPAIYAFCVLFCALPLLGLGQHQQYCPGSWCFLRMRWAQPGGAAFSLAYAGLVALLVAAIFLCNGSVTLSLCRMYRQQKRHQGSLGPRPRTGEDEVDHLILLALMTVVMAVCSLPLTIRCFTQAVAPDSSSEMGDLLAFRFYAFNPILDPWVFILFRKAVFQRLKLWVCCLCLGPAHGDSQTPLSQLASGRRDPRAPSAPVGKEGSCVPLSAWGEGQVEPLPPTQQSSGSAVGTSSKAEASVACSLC
T2 sequence (P43116 whole entry): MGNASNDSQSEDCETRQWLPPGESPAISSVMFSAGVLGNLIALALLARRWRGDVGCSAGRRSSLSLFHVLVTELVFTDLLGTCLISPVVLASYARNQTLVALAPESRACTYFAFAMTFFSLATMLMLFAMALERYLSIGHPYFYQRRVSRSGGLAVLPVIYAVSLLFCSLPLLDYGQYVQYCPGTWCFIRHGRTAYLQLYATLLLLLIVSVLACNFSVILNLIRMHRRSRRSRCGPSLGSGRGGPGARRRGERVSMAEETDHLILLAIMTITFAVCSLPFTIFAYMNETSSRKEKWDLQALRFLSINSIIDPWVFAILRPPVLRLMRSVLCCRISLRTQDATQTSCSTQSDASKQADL

Molecule: CCCCC[C@@H](CC[C@@H]1[C@H]2Cc3cccc(OCC(=O)O)c3C[C@H]2C[C@H]1O)OP(=O)(O)O [VI]
- Measured Sol [1]: > 10 mg/mL

Molecule: CCCCC[C@@H](CC[C@@H]1[C@H]2Cc3cccc(OCC(=O)O)c3C[C@H]2C[C@H]1O)OC(=O)OC(C)C [XVII]
- Measured Sol [1]: 10 mg/mL

Molecule: CCCCC[C@@H](CC[C@@H]1[C@H]2Cc3cccc(OCC(=O)O)c3C[C@H]2C[C@H]1O)OC(=O)OCC [XVI]
- Measured Sol [1]: 10 mg/mL

Molecule: treprostinil diphosphate [Prodrug LXXIII]
- Formation of Treprostinil, Concentration ([2]; 0 min): 0 µM
- Formation of Treprostinil, Concentration ([2]; 15 min): 0 µM
- Formation of Treprostinil, Concentration ([2]; 30 min): 0 µM
- Formation of Treprostinil, Concentration ([2]; 120 min): 0 µM
- Formation of Treprostinil, Concentration [2]: 0 µM
- Formation of Treprostinil, Concentration ([3]; 0 min): 0 µM
- Formation of Treprostinil, Concentration ([3]; 60 mm): 0 µM
- Formation of Treprostinil, Concentration ([3]; 15 min): 0 µM
- Formation of Treprostinil, Concentration ([3]; 30 min): 0 µM
- Formation of Treprostinil, Concentration ([3]; 120 min): 0 µM
- Formation of Treprostinil, Concentration ([4]; 0 min): 0 µM
- Formation of Treprostinil, Concentration ([4]; 15 min): 0 µM
- Formation of Treprostinil, Concentration ([4]; 30 min): 0 µM
- Formation of Treprostinil, Concentration ([4]; 120 min): 0 µM
- Formation of Treprostinil, Concentration [4]: 0 µM
- Treprostinil Concentration, 15 min [5]: 0.0163 µM
- Treprostinil Concentration, 15 min [6]: 0.0097 µM
- Treprostinil Concentration, 15 min [7]: 0.0506 µM
- Activity, IP Relative to Tre ([8]; Table 24, * partial agonists or ambiguous dose-response curves): 208x
- Activity, IP Relative to Tre ([8]; Table 25): 208x
- Fold less active than treprostinil at the IP receptor [8, 16]: approximately 200 fold
- Activity at the EP2 receptor compared to treprostinil [9]: inactive
- Activity, DP1 Relative to Tre [10, 17]: 217x
- Activity, DP1 Relative to Tre ([10]; Table 25): 217x
- Activity at the DP1 receptor compared to treprostinil [10]: several hundred-fold less active
- Hydrolysis of prodrug to treprostinil, % Area, t = 1 week ([11]; pH 6, 40 C): 0.00 % Area
- Hydrolysis of prodrug to treprostinil, % Area, t = 2 weeks ([11]; pH 6, 40 C): 0.00 % Area
- Hydrolysis of prodrug to treprostinil, % Area, t = 3 weeks ([11]; pH 6, 40 C): 0.00 % Area
- Hydrolysis of prodrug to treprostinil, % Area, t = 1 week ([11]; pH 7, 40 C): 0.00 % Area
- Hydrolysis of prodrug to treprostinil, % Area, t = 2 weeks ([11]; pH 7, 40 C): 0.00 % Area
- Hydrolysis of prodrug to treprostinil, % Area, t = 3 weeks ([11]; pH 7, 40 C): 0.00 % Area
- Hydrolysis of prodrug to treprostinil, % Area, t = 1 week ([11]; pH 8, 40 C): 0.00 % Area
- Hydrolysis of prodrug to treprostinil, % Area, t = 2 weeks ([11]; pH 8, 40 C): 0.00 % Area
- Hydrolysis of prodrug to treprostinil, % Area, t = 3 weeks ([11]; pH 8, 40 C): 0.00 % Area
- Percent Remaining (Avg, n = 3) ([12]; 0 min): 100%
- Percent Remaining (Avg, n = 3) ([12]; 30 min): 86.2%
- Percent Remaining (Avg, n = 3) ([12]; 60 min): 71.2%
- Percent Remaining (Avg, n = 3) ([12]; 120 min): 64.0%

Molecule: treprostinil dipropionate [Prodrug LXX]
- Percent Remaining ([2]; 0 min, 1 μM, 37° C.): 100%
- Formation of Treprostinil, Concentration ([2]; 0 min): 0 µM
- Half-Life ([2]; 1 μM, 37° C.): >2 h
- Percent Remaining ([2]; 15 min, 1 μM, 37° C.): 92.4%
- Formation of Treprostinil, Concentration ([2]; 15 min): 0 µM
- Percent Remaining ([2]; 30 min, 1 μM, 37° C.): 102%
- Formation of Treprostinil, Concentration ([2]; 30 min): 0 µM
- Percent Remaining ([2]; 60 min, 1 μM, 37° C.): 93.3%
- Percent Remaining ([2]; 120 min, 1 μM, 37° C.): 103%
- Formation of Treprostinil, Concentration ([2]; 120 min): 0 µM
- Formation of Treprostinil, Concentration [2]: 0 µM
- Percent Remaining ([3]; 0 min, 1 μM, 37° C.): 100%
- Formation of Treprostinil, Concentration ([3]; 0 min): 0 µM
- Half-Life ([3]; 1 μM, 37° C.): 1.7 h
- Formation of Treprostinil, Concentration ([3]; 60 mm): 0.0331 µM
- Percent Remaining ([3]; 15 min, 1 μM, 37° C.): 98.3%
- Formation of Treprostinil, Concentration ([3]; 15 min): 0.00392 µM
- Percent Remaining ([3]; 30 min, 1 μM, 37° C.): 80.3%
- Formation of Treprostinil, Concentration ([3]; 30 min): 0.0101 µM
- Percent Remaining ([3]; 60 min, 1 μM, 37° C.): 69.3%
- Percent Remaining ([3]; 120 min, 1 μM, 37° C.): 45.0%
- Formation of Treprostinil, Concentration ([3]; 120 min): 0.0768 µM
- Percent Remaining ([4]; 0 min, 1 μM, 37° C.): 100%
- Formation of Treprostinil, Concentration ([4]; 0 min): 0 µM
- Half-Life ([4]; 1 μM, 37° C.): >2 h
- Percent Remaining ([4]; 15 min, 1 μM, 37° C.): 103%
- Formation of Treprostinil, Concentration ([4]; 15 min): 0 µM
- Percent Remaining ([4]; 30 min, 1 μM, 37° C.): 116%
- Formation of Treprostinil, Concentration ([4]; 30 min): 0 µM
- Percent Remaining ([4]; 60 min, 1 μM, 37° C.): 97.4%
- Percent Remaining ([4]; 120 min, 1 μM, 37° C.): 91.4%
- Formation of Treprostinil, Concentration ([4]; 120 min): 0 µM
- Formation of Treprostinil, Concentration [4]: 0 µM
- Treprostinil Concentration, 0 min [5]: 0.00542 µM
- Treprostinil Concentration, 15 min [5]: 0.638 µM
- Treprostinil Concentration, 30 min [5]: 0.556 µM
- Treprostinil Concentration, 60 min [5]: 0.482 µM
- Treprostinil Concentration, 120 min [5]: 0.413 µM
- Treprostinil Concentration, 0 min [6]: 0 µM
- Treprostinil Concentration, 15 min [6]: 0.606 µM
- Treprostinil Concentration, 30 min [6]: 0.579 µM
- Treprostinil Concentration, 60 min [6]: 0.484 µM
- Treprostinil Concentration, 120 min [6]: 0.405 µM
- Treprostinil Concentration, 0 min [7]: 0.0959 µM
- Treprostinil Concentration, 15 min [7]: 0.736 µM
- Treprostinil Concentration, 30 min [7]: 0.597 µM
- Treprostinil Concentration, 60 min [7]: 0.511 µM
- Treprostinil Concentration, 120 min [7]: 0.445 µM
- CLint ([7]; hepatocytes): >0.0308 mL/min/mg protein
- Half-Life ([7]; hepatocytes): <0.25 h
- Percent Remaining ([13]; SIF pH 6.8, 0 min, 1 μM, 37° C.): 100%
- Half-Life ([13]; SIF pH 6.8, 1 μM, 37° C.): >2 h
- Percent Remaining ([13]; SIF pH 6.8, 15 min, 1 μM, 37° C.): 97.2%
- Percent Remaining ([13]; SIF pH 6.8, 30 min, 1 μM, 37° C.): 104%
- Percent Remaining ([13]; SIF pH 6.8, 60 min, 1 μM, 37° C.): 93.6%
- Percent Remaining ([13]; SIF pH 6.8, 120 min, 1 μM, 37° C.): 86.2%
- Formation of Treprostinil, Concentration ([13]; 0 min): 0 µM
- Formation of Treprostinil, Concentration ([13]; 15 min): 0 µM
- Formation of Treprostinil, Concentration ([13]; 30 min): 0 µM
- Formation of Treprostinil, Concentration ([13]; 60 min): 0.00415 µM
- Formation of Treprostinil, Concentration ([13]; 120 min): 0.0720 µM
- Activity at the IP receptor compared to treprostinil [8, 16]: inactive
- Activity at the EP2 receptor compared to treprostinil [9]: inactive
- EC50 Fold Different from Treprostinil, DP1 Receptor ([10]; Table 20, agonist mode, NC = too inactive to realistically calculate, * partial agonists or odd dose-response curves): 410x*
- Activity, DP1 Relative to Tre [10, 17]: 410x
- Activity, DP1 Relative to Tre ([10]; Table 25): 410x
- Activity at the DP1 receptor compared to treprostinil [10]: several hundred-fold less active
- Hydrolysis of prodrug to treprostinil, % Area, t = 1 week ([11]; pH 6, 40 C): 0.00 % Area
- Hydrolysis of prodrug to treprostinil, % Area, t = 2 weeks ([11]; pH 6, 40 C): 0.00 % Area
- Hydrolysis of prodrug to treprostinil, % Area, t = 3 weeks ([11]; pH 6, 40 C): 0.00 % Area
- Hydrolysis of prodrug to treprostinil, % Area, t = 1 week ([11]; pH 7, 40 C): 0.00 % Area
- Hydrolysis of prodrug to treprostinil, % Area, t = 2 weeks ([11]; pH 7, 40 C): 0.00 % Area
- Hydrolysis of prodrug to treprostinil, % Area, t = 3 weeks ([11]; pH 7, 40 C): 0.00 % Area
- Hydrolysis of prodrug to treprostinil, % Area, t = 1 week ([11]; pH 8, 40 C): 0.00 % Area
- Hydrolysis of prodrug to treprostinil, % Area, t = 2 weeks ([11]; pH 8, 40 C): 0.00 % Area
- Hydrolysis of prodrug to treprostinil, % Area, t = 3 weeks ([11]; pH 8, 40 C): 0.00 % Area
- Half-Life [14]: <0.167 h
- Half-Life [15]: <0.167 h
